The values below come from ChEMBL document CHEMBL2021853, “Discovery of 1,2,4-triazine derivatives as adenosine A(2A) antagonists using structure based drug design” (J Med Chem, 2012).

What is called Ki is a measure of affinity in units of concentration, obtained from inhibition or displacement. As usually defined, the bioavailability is dose-corrected exposure relative to a reference, in per cent. Lower therefore signals poor availability. The term AUC(0-inf) denotes the area under the concentration-time curve extrapolated to infinity. Low values mean low exposure, high ones high exposure. Broadly, the ED50 is the dose that gives a 50% effect, or the effect in half of the subjects. As usually defined, the clearance is a measure of how efficiently the substance is removed, as volume per time. One may read the Tmax as the time from dosing to the highest level. As usually defined, the Cmax is the maximum level reached in the sampled fluid or tissue.

One series deals with Liver microsomes. The experiment in a line: Half life in rat liver microsomes at 1 uM. On the technique in general: Liver microsomes are vesicles of endoplasmic reticulum, rich in cytochrome P450 enzymes.
In the next series the test system is Plasma. The experiment in a line: Plasma protein binding in rat at 10 uM after 6 hrs.
The target of another series is T1, Adenosine receptor A1 (Homo sapiens, UniProt P30542).
T1 sequence (P30542 whole entry): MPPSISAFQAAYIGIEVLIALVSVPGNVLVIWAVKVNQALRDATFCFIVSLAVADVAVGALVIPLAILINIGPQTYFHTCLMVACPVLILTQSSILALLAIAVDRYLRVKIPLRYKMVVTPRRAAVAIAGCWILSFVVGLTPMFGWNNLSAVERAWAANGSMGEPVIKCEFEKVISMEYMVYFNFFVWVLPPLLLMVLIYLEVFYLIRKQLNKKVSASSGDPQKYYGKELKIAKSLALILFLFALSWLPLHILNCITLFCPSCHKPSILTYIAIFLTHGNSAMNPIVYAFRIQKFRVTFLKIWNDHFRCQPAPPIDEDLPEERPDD

A short description of series [1]: Kinetic solubility of the compound.
Series [2] is described as follows: Terminal half life in rat at 1 mg/kg, iv. The note with it: in vivo, read-out: beta t1/2 (converted). It is filed as ADME, organism-based. Details: dose 1 mg/kg, route intravenous.
The nature of series [3]: Oral bioavailability in rat at 2 mg/kg. It is filed as ADME, organism-based. The settings on record: in vivo.
Series [4] is described as follows: AUC (infinity) in rat at 1 mg/kg, iv. It is filed as ADME, organism-based. Details: dose 1 mg/kg, route intravenous, time infinity. The note with it: plasma.
Series [5] relates to Rattus norvegicus. The experiment in a line: Reversal of haloperidol-induced catalepsy in po dosed Sprague-Dawley rat administered 30 mins post haloperidol-challenge measured after 2 hrs. It counts as functional.
Series [6] in a line: Plasma clearance in rat at 1 mg/kg, iv. It counts as ADME, organism-based. Details: dose 1 mg/kg, route intravenous.
A short description of series [7]: Terminal half life in rat at 2 mg/kg, po. It counts as ADME, organism-based. The settings on record: in vivo, read-out: beta t1/2 (converted). Details: dose 2 mg/kg, route oral.
Series [8] can be described thus: Tmax in rat at 2 mg/kg, po. Details: dose 2 mg/kg, route oral. It is filed as ADME, organism-based. The settings on record: in vivo.
Series [9] concerns Rattus norvegicus. In words: Reversal of haloperidol-induced catalepsy in po dosed Sprague-Dawley rat administered 30 mins post haloperidol-challenge measured after 1 hr. It counts as functional.
A short description of series [10]: Cmax in rat at 2 mg/kg, po. It counts as ADME, organism-based. Details: dose 2 mg/kg, route oral. The settings on record: in vivo.
Series [11] in a line: Volume of distribution at steady state in rat at 1 mg/kg, iv. It counts as ADME, organism-based. Details: dose 1 mg/kg, route intravenous. The settings on record: in vivo, read-out: Vdss.
Another series relates to Nucleic Acid. In words: Ratio of drug level in brain to plasma in rat at 1 mg/kg, iv at 0.5 hrs. It is filed as ADME, organism-based. Details: dose 1 mg/kg, route intravenous.
A further series has as its target T2, Adenosine receptor A2b (Homo sapiens, UniProt P29275).
T2 sequence (P29275 whole entry): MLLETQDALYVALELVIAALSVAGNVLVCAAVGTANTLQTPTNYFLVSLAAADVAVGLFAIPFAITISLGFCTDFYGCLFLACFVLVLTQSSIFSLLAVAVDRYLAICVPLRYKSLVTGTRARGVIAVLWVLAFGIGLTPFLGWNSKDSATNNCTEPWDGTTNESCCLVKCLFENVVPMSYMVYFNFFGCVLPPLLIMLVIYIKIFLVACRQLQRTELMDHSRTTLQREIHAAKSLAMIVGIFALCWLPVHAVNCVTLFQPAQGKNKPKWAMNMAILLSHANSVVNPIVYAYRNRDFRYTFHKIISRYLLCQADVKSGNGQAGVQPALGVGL
The experiment in a line: Inhibition of adenosine A2B receptor.

For series [12], the target named is T3, Adenosine receptor A3 (Homo sapiens) (UniProt P0DMS8).
T3 sequence (whole entry): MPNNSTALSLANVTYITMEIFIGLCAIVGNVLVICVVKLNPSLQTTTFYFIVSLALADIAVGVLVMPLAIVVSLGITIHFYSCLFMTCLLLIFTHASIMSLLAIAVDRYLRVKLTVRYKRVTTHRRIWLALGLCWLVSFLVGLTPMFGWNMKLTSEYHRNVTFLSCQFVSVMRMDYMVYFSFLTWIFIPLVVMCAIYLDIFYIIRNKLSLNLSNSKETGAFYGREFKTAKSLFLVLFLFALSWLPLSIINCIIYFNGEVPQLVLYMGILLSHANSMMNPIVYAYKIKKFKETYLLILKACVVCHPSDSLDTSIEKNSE
The experiment in a line: Antagonist activity at adenosine A3 receptor. It is filed as functional.

As to `Cc1cc(-c2nnc(N)nc2-c2cccc(F)c2)cc(C)n1`, the t1/2 in the series on Liver microsomes came out at 1.3 h. This compound displayed a PPB in the series on Plasma of 87%. Affinity on Adenosine receptor A1 was put at a Ki of 110 nM.
Turning to `Nc1nnc(-c2ccc(O)c(Cl)c2)c(-c2ccccc2)n1`, the t1/2 in the series with Liver microsomes came out at 1.15 h. This compound also yielded a Kinetic_solubility in series [1] of 45 µM. In the series on Plasma, this compound gave a PPB of 98%.
On to `Cc1cc(-c2nnc(N)nc2-c2ccccc2)cc(C(F)(F)F)n1`, for which the half-life in [2] was 1.2 h; in series [7], 1.1 h. The compound further displayed a t1/2 in the series with Liver microsomes of 1.43 h. The compound also yielded a bioavailability in series [3] of 100%. In addition, the PPB with Plasma turned out to be 92%. Besides, the area under the curve AUC(0-inf) in series [4] worked out at 397 ng·h/mL. Besides, the Activity entry with Rattus norvegicus [5] and in the series on Rattus norvegicus [9] was “Dose-dependent effect” in each case. Further, the ED50 in the series on Rattus norvegicus [5] and with Rattus norvegicus [9] was 0.2 mg/kg in each case. The clearance in series [6] was 42 mL/min/kg. The Tmax in [8] turned out to be 0.4 h. In [10], the concentration peaked (Cmax) at 244 ng/mL. Also, the Vd in series [11] stood at 4.6 L/kg. The BPR in the series with Nucleic Acid was 3.2.
For `Cc1cc(-c2nnc(N)nc2-c2ccccc2)cc(C)n1`, the t1/2 in the series on Liver microsomes stood at 1.67 h. Further, the values for the Ki on Adenosine receptor A2b and at Adenosine receptor A1 were 50.1 nM and 85.1 nM, respectively. In addition, the Kinetic_solubility in [1] stood at 40 µM. In the series with Plasma, this compound had a PPB of 82.1%. The INH in series [12] is more than 10 µM.
In the series on Liver microsomes, `Nc1nnc(-c2cc(Cl)cc(Cl)c2)c(-c2ccccc2)n1` registered a t1/2 of 1.8 h. This compound showed an INH in series [12] of more than 10 µM.
With `Nc1nnc(-c2cccc(Cl)c2)c(-c2ccccc2)n1`, the t1/2 in the series with Liver microsomes worked out at 0.483 h. The PPB in the series on Plasma was 97.9%.
Consider `Nc1nnc(-c2ccccc2)c(-c2ccccc2)n1`, for which the t1/2 in the series on Liver microsomes turned out to be 0.383 h. Moreover, the Kinetic_solubility in series [1] was more than 100 µM. This compound also gave a Ki on Adenosine receptor A1 of 275 nM.
Compound `Cc1cc(-c2nnc(N)nc2-c2ccc(F)cc2)cc(C(F)(F)F)n1` came in with a t1/2 in the series with Liver microsomes of 1.62 h. This compound showed a PPB with Plasma of 93%. This compound also had a Ki at Adenosine receptor A1 of 117 nM.
In the series with Liver microsomes, `Cc1cc(C)cc(-c2nnc(N)nc2-c2ccccc2)c1` came in with a t1/2 of 0.15 h. This compound had a Kinetic_solubility in [1] of 20 µM. In the series on Plasma, this compound had a PPB of 98%. In addition, the Ki on Adenosine receptor A1 is 195 nM.
`Cc1cc(-c2nnc(N)nc2-c2cc(F)cc(F)c2)cc(C)n1` showed a t1/2 in the series with Liver microsomes of 1.67 h. The compound also had a Kinetic_solubility in series [1] of 45 µM. The compound further had a Ki on Adenosine receptor A1 of 170 nM.
For `Cc1cc(-c2nnc(N)nc2-c2ccccc2)cc(C)c1O`, the t1/2 with Liver microsomes was 1.25 h. The same compound yielded a PPB in the series with Plasma of 93.3%. The same compound gave a Ki at Adenosine receptor A1 of 16.6 nM.
